Experimental findings from ChEMBL document CHEMBL1629580, “Sec- and Tat-dependent translocation of beta-lactamases across the Escherichia coli inner membrane” (2009) are described below.

Experiment [1] deals with Escherichia coli. Nature of the experiment: Antimicrobial activity against Escherichia coli MC4100A expressing beta-lactamase TEM-1 by liquid microdilution method. Format: functional. On the technique in general: Dilution methods test growth across graded concentrations, often in twofold steps.
Experiment [2] has as its system Escherichia coli. Nature of the experiment: Antimicrobial activity against Escherichia coli MC4100A harboring empty plasmid by liquid microdilution method. Type of experiment: functional.
In experiment [3] the test system is Escherichia coli. Nature of the experiment: Antimicrobial activity against Escherichia coli CU164A harboring beta-lactamase L1 by liquid microdilution method. Type of experiment: functional.
In experiment [4] the test system is Escherichia coli. Nature of the experiment: Antimicrobial activity against Escherichia coli CU164A harboring beta-lactamase AmpC by liquid microdilution method.
The test system of experiment [5] is Escherichia coli. Nature of the experiment: Antimicrobial activity against Escherichia coli CU164A harboring empty plasmid by liquid microdilution method. Format: functional.
Experiment [6] relates to Escherichia coli. Briefly: Antimicrobial activity against Escherichia coli MC4100A harboring beta-lactamase AmpC by liquid microdilution method. Format: functional.
Experiment [7] has as its system Escherichia coli. Briefly: Antimicrobial activity against translocase tatC-deficient Escherichia coli B1LK0A harboring beta-lactamase L1 by liquid microdilution method. Format: functional.
Experiment [8] has as its system Escherichia coli. Briefly: Antimicrobial activity against translocase tatC-deficient Escherichia coli B1LK0A harboring beta-lactamase CTX-M-14 by liquid microdilution method. Format: functional.
Experiment [9] has as its system Escherichia coli. Briefly: Antimicrobial activity against translocase tatC-deficient Escherichia coli B1LK0A harboring beta-lactamase L2 by liquid microdilution method. Format: functional.
The subject of experiment [10] is Escherichia coli. Briefly: Antimicrobial activity against mreB-deficient Escherichia coli YLS-3 harboring empty plasmid by liquid microdilution method. Type of experiment: functional.
Experiment [11] has as its system Escherichia coli. Nature of the experiment: Antimicrobial activity against Escherichia coli MC4100A harboring beta-lactamase CTX-M-14 by liquid microdilution method. Format: functional.
Experiment [12] relates to Escherichia coli. Briefly: Antimicrobial activity against Escherichia coli MC4100A harboring beta-lactamase L1 by liquid microdilution method. Format: functional.
Experiment [13] relates to Escherichia coli. Briefly: Antimicrobial activity against translocase tatC-deficient Escherichia coli B1LK0A harboring beta-lactamase AmpC by liquid microdilution method.
Experiment [14] has as its system Escherichia coli. Nature of the experiment: Antimicrobial activity against Escherichia coli CU164A harboring beta-lactamase L2 by liquid microdilution method.
For experiment [15], the system named is Escherichia coli. Briefly: Antimicrobial activity against mreB-deficient Escherichia coli YLS-3 harboring beta-lactamase L1 by liquid microdilution method.
The test system of experiment [16] is Escherichia coli. Nature of the experiment: Antimicrobial activity against Escherichia coli MC4100A harboring beta-lactamase L2 by liquid microdilution method.
Experiment [17] concerns Escherichia coli. Briefly: Antimicrobial activity against mreB-deficient Escherichia coli YLS-3 harboring beta-lactamase CTX-M-14 by liquid microdilution method. Type of experiment: functional.
The subject of experiment [18] is Escherichia coli. Nature of the experiment: Antimicrobial activity against translocase tatC-deficient Escherichia coli B1LK0A harboring empty plasmid by liquid microdilution method. Format: functional.
For experiment [19], the system named is Escherichia coli. Nature of the experiment: Antimicrobial activity against translocase tatC-deficient Escherichia coli B1LK0A expressing beta-lactamase TEM-1 by liquid microdilution method. Format: functional.
Experiment [20] deals with Escherichia coli. Briefly: Antimicrobial activity against mreB-deficient Escherichia coli YLS-3 expressing beta-lactamase TEM-1 by liquid microdilution method. Type of experiment: functional.
The subject of experiment [21] is Escherichia coli. Nature of the experiment: Antimicrobial activity against mreB-deficient Escherichia coli YLS-3 harboring beta-lactamase L2 by liquid microdilution method. Format: functional.
The subject of experiment [22] is Escherichia coli. Briefly: Antimicrobial activity against mreB-deficient Escherichia coli YLS-3 harboring beta-lactamase AmpC by liquid microdilution method.
Experiment [23] relates to Escherichia coli. Nature of the experiment: Antimicrobial activity against Escherichia coli CU164A expressing beta-lactamase TEM-1 by liquid microdilution method. Type of experiment: functional.
Experiment [24] concerns Escherichia coli. Briefly: Antimicrobial activity against Escherichia coli CU164A harboring beta-lactamase CTX-M-14 by liquid microdilution method. Format: functional.

Molecules are shown by their SMILES. Values after ≈ are worked out from the molar mass of the structure shown.

In general, MIC refers to the lowest concentration found to suppress growth. Low readings indicate inhibition by little substance, high ones a need for much substance. As for `CCN1CCN(C(=O)N[C@@H](C(=O)N[C@@H]2C(=O)N3[C@@H]2SC(C)(C)[C@@H]3C(=O)O)c2ccccc2)C(=O)C1=O` [PIPERACILLIN], the MIC in the experiment on Escherichia coli [1] stood at 512 µg/mL (≈ 989 µM); in the experiment on Escherichia coli [2], 2 µg/mL (≈ 3.86 µM); against Escherichia coli [3], 32 µg/mL (≈ 61.8 µM); in the experiment with Escherichia coli [4], 32 µg/mL (≈ 61.8 µM); with Escherichia coli [5], 2 µg/mL (≈ 3.86 µM); against Escherichia coli [6] it was 32 µg/mL (≈ 61.8 µM). Also, the MIC against Escherichia coli [7] was 32 µg/mL (≈ 61.8 µM); in the experiment with Escherichia coli [8], 512 µg/mL (≈ 989 µM); with Escherichia coli [9], ≤ 2 µg/mL; with Escherichia coli [10], ≤ 2 µg/mL; against Escherichia coli [11], 512 µg/mL (≈ 989 µM); against Escherichia coli [12] it was 64 µg/mL (≈ 124 µM). Moreover, the MIC against Escherichia coli [13] was 32 µg/mL (≈ 61.8 µM); in the experiment with Escherichia coli [14] it was 128 µg/mL (≈ 247 µM); with Escherichia coli [15], 32 µg/mL (≈ 61.8 µM); against Escherichia coli [16], 128 µg/mL (≈ 247 µM); against Escherichia coli [17], 128 µg/mL (≈ 247 µM); with Escherichia coli [18], ≤ 2 µg/mL. Further, the minimal inhibitory concentration (MIC) against Escherichia coli [19] was found to be 128 µg/mL (≈ 247 µM); in the experiment on Escherichia coli [20] it was 32 µg/mL (≈ 61.8 µM); with Escherichia coli [21], 32 µg/mL (≈ 61.8 µM); in the experiment with Escherichia coli [22], 16 µg/mL (≈ 30.9 µM); in the experiment with Escherichia coli [23], 256 µg/mL (≈ 495 µM); in the experiment on Escherichia coli [24], 512 µg/mL (≈ 989 µM).

Regarding `CO/N=C(\C(=O)N[C@@H]1C(=O)N2C(C(=O)O)=C(COC(C)=O)CS[C@H]12)c1csc(N)n1` [CEFOTAXIME], the MIC against Escherichia coli [1] was ≤ 0.06 µg/mL; with Escherichia coli [3], 1 µg/mL (≈ 2.2 µM); with Escherichia coli [4], 0.5 µg/mL (≈ 1.1 µM); against Escherichia coli [6], 0.5 µg/mL (≈ 1.1 µM); in the experiment with Escherichia coli [7], 1 µg/mL (≈ 2.2 µM); in the experiment with Escherichia coli [8], 16 µg/mL (≈ 35.1 µM). For the same molecule, the MIC in the experiment on Escherichia coli [11] was 16 µg/mL (≈ 35.1 µM); against Escherichia coli [12] it was 1 µg/mL (≈ 2.2 µM); against Escherichia coli [13], 0.5 µg/mL (≈ 1.1 µM); with Escherichia coli [14], 2 µg/mL (≈ 4.39 µM); in the experiment on Escherichia coli [15] it was 0.06 µg/mL (≈ 0.132 µM); in the experiment on Escherichia coli [16], 2 µg/mL (≈ 4.39 µM). For the same molecule, the MIC against Escherichia coli [17] was 4 µg/mL (≈ 8.78 µM); in the experiment on Escherichia coli [19], ≤ 0.06 µg/mL; with Escherichia coli [20] it was ≤ 0.06 µg/mL; against Escherichia coli [21], 0.06 µg/mL (≈ 0.132 µM); against Escherichia coli [22], 0.12 µg/mL (≈ 0.263 µM); in the experiment on Escherichia coli [23], ≤ 0.06 µg/mL. In the experiment with Escherichia coli [24], it took 16 µg/mL (≈ 35.1 µM) to inhibit growth (MIC).

As for `CC(C)(O/N=C(\C(=O)N[C@@H]1C(=O)N2C(C(=O)[O-])=C(C[n+]3ccccc3)CS[C@H]12)c1csc(N)n1)C(=O)O` [CEFTAZIDIME], the MIC against Escherichia coli [1] is ≤ 0.06 µg/mL; in the experiment on Escherichia coli [2], ≤ 0.06 µg/mL; with Escherichia coli [3] it was 8 µg/mL (≈ 14.6 µM); against Escherichia coli [4] it was 0.25 µg/mL (≈ 0.457 µM); against Escherichia coli [5], ≤ 0.06 µg/mL; against Escherichia coli [6], 0.25 µg/mL (≈ 0.457 µM). Further, the minimum inhibitory concentration (MIC) with Escherichia coli [7] is 8 µg/mL (≈ 14.6 µM); in the experiment with Escherichia coli [8], 1 µg/mL (≈ 1.83 µM); against Escherichia coli [9] it was ≤ 0.06 µg/mL; against Escherichia coli [10], ≤ 0.06 µg/mL; in the experiment with Escherichia coli [11], 1 µg/mL (≈ 1.83 µM); against Escherichia coli [12], 8 µg/mL (≈ 14.6 µM). Besides, the MIC in the experiment with Escherichia coli [13] is 0.25 µg/mL (≈ 0.457 µM); against Escherichia coli [14] it was 4 µg/mL (≈ 7.32 µM); in the experiment on Escherichia coli [15], 0.06 µg/mL (≈ 0.11 µM); with Escherichia coli [16], 4 µg/mL (≈ 7.32 µM); in the experiment with Escherichia coli [17], 0.5 µg/mL (≈ 0.915 µM); in the experiment with Escherichia coli [18] it was ≤ 0.06 µg/mL. The minimal inhibitory concentration (MIC) against Escherichia coli [19] was ≤ 0.06 µg/mL; against Escherichia coli [20] it was ≤ 0.06 µg/mL; against Escherichia coli [21], 0.06 µg/mL (≈ 0.11 µM); with Escherichia coli [22], 0.06 µg/mL (≈ 0.11 µM); in the experiment on Escherichia coli [23] it was ≤ 0.06 µg/mL; against Escherichia coli [24], 1 µg/mL (≈ 1.83 µM).

For the molecule `CC1(C)S[C@@H]2[C@H](NC(=O)[C@H](N)c3ccc(O)cc3)C(=O)N2[C@H]1C(=O)O` [AMOXICILLIN], the minimum inhibitory concentration (MIC) came out at 1020 µg/mL (≈ 2800 µM) in the experiment with Escherichia coli [1]; 4 µg/mL (≈ 10.9 µM) in the experiment on Escherichia coli [2]; 512 µg/mL (≈ 1400 µM) against Escherichia coli [3]; 512 µg/mL (≈ 1400 µM) against Escherichia coli [4]; 4 µg/mL (≈ 10.9 µM) in the experiment on Escherichia coli [5]; 512 µg/mL (≈ 1400 µM) with Escherichia coli [6]. Besides, the MIC in the experiment with Escherichia coli [7] came to 512 µg/mL (≈ 1400 µM); against Escherichia coli [8] it was 2050 µg/mL (≈ 5600 µM); against Escherichia coli [9], 4 µg/mL (≈ 10.9 µM); with Escherichia coli [10], 4 µg/mL (≈ 10.9 µM); in the experiment on Escherichia coli [11], 2050 µg/mL (≈ 5600 µM); in the experiment on Escherichia coli [12], 1020 µg/mL (≈ 2800 µM). Moreover, the MIC with Escherichia coli [13] worked out at 512 µg/mL (≈ 1400 µM); against Escherichia coli [14], 512 µg/mL (≈ 1400 µM); against Escherichia coli [15] it was 512 µg/mL (≈ 1400 µM); in the experiment with Escherichia coli [16], 64 µg/mL (≈ 175 µM); against Escherichia coli [17], 1020 µg/mL (≈ 2800 µM); against Escherichia coli [18] it was 4 µg/mL (≈ 10.9 µM). The MIC in the experiment with Escherichia coli [19] amounted to 512 µg/mL (≈ 1400 µM); in the experiment on Escherichia coli [20], 256 µg/mL (≈ 701 µM); in the experiment with Escherichia coli [21], 256 µg/mL (≈ 701 µM); in the experiment with Escherichia coli [22], 128 µg/mL (≈ 350 µM); in the experiment on Escherichia coli [23], 1020 µg/mL (≈ 2800 µM); in the experiment with Escherichia coli [24], 2050 µg/mL (≈ 5600 µM).

Regarding `CC(=O)OCC1=C(C(=O)O)N2C(=O)[C@@H](NC(=O)Cc3cccs3)[C@H]2SC1` [CEPHALOTHIN], the minimal inhibitory concentration (MIC) with Escherichia coli [1] turned out to be 32 µg/mL (≈ 80.7 µM); with Escherichia coli [2], 4 µg/mL (≈ 10.1 µM); in the experiment on Escherichia coli [3], 128 µg/mL (≈ 323 µM); in the experiment with Escherichia coli [4], 512 µg/mL (≈ 1290 µM); against Escherichia coli [5] it was 4 µg/mL (≈ 10.1 µM); with Escherichia coli [6], 1020 µg/mL (≈ 2580 µM). For the same molecule, the MIC was 128 µg/mL (≈ 323 µM) with Escherichia coli [7]; 512 µg/mL (≈ 1290 µM) with Escherichia coli [8]; ≤ 2 µg/mL in the experiment with Escherichia coli [9]; ≤ 2 µg/mL in the experiment with Escherichia coli [10]; 1020 µg/mL (≈ 2580 µM) in the experiment with Escherichia coli [11]; 128 µg/mL (≈ 323 µM) against Escherichia coli [12]. Moreover, the minimal inhibitory concentration (MIC) in the experiment on Escherichia coli [13] is 256 µg/mL (≈ 646 µM); in the experiment on Escherichia coli [14], 256 µg/mL (≈ 646 µM); in the experiment on Escherichia coli [15], 32 µg/mL (≈ 80.7 µM); with Escherichia coli [16], 256 µg/mL (≈ 646 µM); in the experiment on Escherichia coli [17], 128 µg/mL (≈ 323 µM); in the experiment with Escherichia coli [18], ≤ 2 µg/mL. Also, the MIC against Escherichia coli [19] was 16 µg/mL (≈ 40.4 µM); in the experiment on Escherichia coli [20], 8 µg/mL (≈ 20.2 µM); against Escherichia coli [21], 64 µg/mL (≈ 161 µM); with Escherichia coli [22], 256 µg/mL (≈ 646 µM); against Escherichia coli [23], 32 µg/mL (≈ 80.7 µM); in the experiment on Escherichia coli [24] it was 1020 µg/mL (≈ 2580 µM).
